Assay results from US8563543B2, “Iminothiadiazine dioxide compounds as bace inhibitors, compositions, and their use” (Merck Sharp & Dohme Corp., priority 2009, dated 2013).
Values joined by “and” are separate entries in the source; they are usually repeats but may differ in a detail not shown here. Equal values may be shown once.

Tests used:
[1] = Solution stability (hydrolysis) by LC/MS in pH 7.4 phosphate buffer; assay type: physicochemical; details: for hydrolysis: 25° C. over 6 days; for hydrolysis / hydrolysis product share of the sample: pH 7.4
Description: The following procedures were used to measure solution stability, and to compare the solution stability of the compounds of the invention to that of otherwise structurally identical iminopyrimidinones.
Stock solutions of the tested compounds were prepared by dissolving about 3 mg of each compound in 3 mL of acetonitrile. Standards for test compounds were prepared by diluting 1 mL of the stock solution with an additional 4 mL of acetonitrile. These standards were stored at 4° C. Samples were prepared by diluting 1 mL of the stock solution with 4 mL of 50 mM pH 7.4 phosphate buffer. These samples were stored at the appropriate temperature in the absence of light. Standards and samples were analyzed by LC/MS initially and at day 1, day 4, and day 6. • HPLC Conditions: • Mobile phase A: 10 mM pH 5 ammonium acetate buffer:methanol (90:10) • Mobile phase B: 10 mM pH 5 ammonium acetate buffer:methanol (10:90) • Column: Zorbax SB-Phenyl 4.6×50 mm, 1.8 μm • Column temperature: 40° C. • Flow: 0.8 mL/min. • Gradient:
• Detectors: UV at 220 nm and 236 nm • MS, ES ionization, positive mode, for identification only at final time point. • The terms reported in the tables below have the following meanings: • Area % is the integration of peak from HPLC as reported by Waters Empower II software. • RRT is the relative retention time of new product compared to the standard of the test compound. • Formula for RRT is:
[formula] • M+1 is the mass observed including protonation (+1 mass unit). • ND stands for no peak detected by the UV detector. • * stands for no ion detected by the mass spectrometer.

[2] = biological target: soluble human BACE1 catalytic domain (Homo sapiens, UniProt P56817); experiment: BACE1 HTRF FRET assay; assay type: biochemical; details: calculated from IC50 using the Cheng-Prusoff equation
Excerpt: Dimethyl Sulfoxide (DMSO)
Recombinant human soluble BACE1 catalytic domain (>95% pure)
APP Swedish mutant peptide substrate (QSY7-APP^swe-Eu): QSY7-[…]-Europium-amide
A homogeneous time-resolved FRET assay was used to determine IC50 values for inhibitors of the soluble human BACE1 catalytic domain. This assay monitored the increase of 620 nm fluorescence that resulted from BACE1 cleavage of an APPswedish APP^swe mutant peptide FRET substrate (QSY7-[…]-Europium-amide). This substrate contained an N-terminal QSY7 moiety that served as a quencher of the C-terminal Europium fluorophore (620 nm Em). In the absence of enzyme activity, 620 nm fluorescence was low in the assay and increased linearly over 3 hours in the presence of uninhibited BACE1 enzyme. Inhibition of BACE1 cleavage of the QSY7-APP^swe-Eu substrate by inhibitors was manifested as a suppression of 620 nm fluorescence.
Varying concentrations of inhibitors at 3× the final desired concentration in a volume of 10 ul were preincubated with purified human BACE1 catalytic domain (3 nM in 10 μl) for 30 minutes at 30° C. in reaction buffer containing 20 mM Na-Acetate pH 5.0, 10% glycerol, 0.1% Brij-35 and 7.5% DSMO. […] The 620 nm fluorescence was then read on a Rubystar HTRF plate reader (BMG Labtechnologies) using a 50 μs delay followed by a 400 millisecond acquisition time window. […]

[3] = biological target: T1, purified human autoBACE-2 (Homo sapiens, UniProt Q9Y5Z0); experiment: BACE-2 time-resolved endpoint proteolysis assay (BACE-HTRF assay); assay type: biochemical; details: calculated from IC50 using the Cheng-Prusoff equation
T1 sequence (Q9Y5Z0 63-473 limits assumed): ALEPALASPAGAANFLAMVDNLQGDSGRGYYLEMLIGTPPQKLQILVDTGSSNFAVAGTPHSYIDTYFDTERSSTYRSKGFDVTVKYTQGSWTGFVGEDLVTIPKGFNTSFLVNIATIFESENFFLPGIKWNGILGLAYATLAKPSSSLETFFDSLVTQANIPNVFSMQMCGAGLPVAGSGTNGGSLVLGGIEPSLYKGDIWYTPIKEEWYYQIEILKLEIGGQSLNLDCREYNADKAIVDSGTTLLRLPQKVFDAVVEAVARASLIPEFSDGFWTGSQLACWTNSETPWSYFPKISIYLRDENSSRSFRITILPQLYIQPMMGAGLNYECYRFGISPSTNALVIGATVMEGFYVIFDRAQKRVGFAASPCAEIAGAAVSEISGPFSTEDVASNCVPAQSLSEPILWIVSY
Description: Inhibitor IC50 values at purified human autoBACE-2 were determined in a time-resolved endpoint proteolysis assay that measures hydrolysis of the QSY7-[…]-Eu-amide FRET peptide substrate (BACE-HTRF assay). RACE-mediated hydrolysis of this peptide results in an increase in relative fluorescence (RFU) at 620 nm after excitation with 320 nm light. Inhibitor compounds, prepared at 3× the desired final concentration in 1×BACE assay buffer (20 mM sodium acetate pH 5.0, 10% glycerol, 0.1% Brij-35) supplemented with 7.5% DMSO were pre-incubated with an equal volume of autoBACE-2 enzyme diluted in 1×RACE assay buffer (final enzyme concentration 1 nM) in black 384-well NUNC plates for 30 minutes at 30° C. […] DMSO was present at 5% final concentration in the assay. Following laser excitation of sample wells at 320 nm, the fluorescence signal at 620 nm was collected for 400 ms following a 50 μs delay on a RUBYstar HTRF plate reader (BMG Labtechnologies). Raw RFU data was normalized to maximum (1.0 nM RACE/DMSO) and minimum (no enzyme/DMSO)RFU values. IC50 values were determined by nonlinear regression analysis (sigmoidal dose response, variable slope) of percent inhibition data with minimum and maximum values set to 0 and 100 percent respectively. Similar IC50 values were obtained when using raw RFU data. The Ki values were calculated from the IC50 using the Cheng-Prusoff equation.

[4] = Sample at pH 7.4, 25° C., Day 1
[5] = Sample at pH 7.4, 25° C., Day 4
[6] = Sample at pH 7.4, 25° C., Day 6
[7] = Sample at pH 7.4, 25° C., Initial
[8] = Sample initial, 40° C. and 60° C. studies
[9] = Standard in acetonitrile, stored at 4° C., Day 1
[10] = Standard in acetonitrile, stored at 4° C., Day 4
[11] = Standard in acetonitrile, stored at 4° C., Day 6
[12] = Standard in acetonitrile, stored at 4° C., Initial

Sequence of soluble human BACE1 catalytic domain (P56817 75-416 limits assumed): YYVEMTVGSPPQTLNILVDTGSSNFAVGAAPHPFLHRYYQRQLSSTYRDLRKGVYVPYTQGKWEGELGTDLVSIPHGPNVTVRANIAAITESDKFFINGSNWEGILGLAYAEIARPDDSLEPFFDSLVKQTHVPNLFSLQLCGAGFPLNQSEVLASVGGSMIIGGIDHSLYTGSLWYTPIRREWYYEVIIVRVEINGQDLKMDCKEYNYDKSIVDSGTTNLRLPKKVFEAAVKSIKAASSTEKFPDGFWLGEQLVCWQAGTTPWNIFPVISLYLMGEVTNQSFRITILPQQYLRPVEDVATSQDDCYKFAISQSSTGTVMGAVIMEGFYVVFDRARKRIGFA

| SMILES | hydrolysis [1] | hydrolysis product share of the sample ([1]; 40° C. over 4 days) | hydrolysis product share of the sample ([1]; 60° C.) | Area %, Day 1 (parent peak) [1, 4] | Area %, Day 4 (parent peak) [1, 5] | Area %, Day 6 (parent peak) [1, 6] | Area %, Initial (parent peak) [1, 7] | Area %, Initial (parent peak) [1, 8] | Area %, Day 1 (parent peak) [1, 9] | Area %, Day 4 (parent peak) [1, 10] | Area %, Day 6 (parent peak) [1, 11] | Area %, Initial (parent peak) [1, 12] | Area %, Day 1 (parent peak) ([1]; pH 7.4 at 40° C., Day 1) | Area %, Day 4 (parent peak) ([1]; pH 7.4 at 40° C., Day 4) | also measured |
| --- | --- | --- | --- | --- | --- | --- | --- | --- | --- | --- | --- | --- | --- | --- | --- |
| CN1C(=N)N[C@](C)(c2ccc(F)cc2F)[C@@H](c2ccc(C(F)(F)F)cc2)C1=O [Compound Y] | 3.36% | 31.4% | 28.5% | 100.0% | 100.0% | 89.79% | 100.0% | 98.2% | 100.0% and 99.4% | 100.0% | 100.0% | 100.0% and 98.8% | 86.3% | 55.8% | Area %, Day 6 (hydrolysis product peak) [1, 6]: 3.36%; Area %, Initial (hydrolysis product peak) [1, 8]: 0.7%; Area %, Day 1 (hydrolysis product peak) ([1]; pH 7.4 at 40° C., Day 1): 10.5%; Area %, Day 4 (hydrolysis product peak) ([1]; pH 7.4 at 40° C., Day 4): 31.4%; Area %, Day 4 (unidentified peak, RRT 0.87) ([1]; pH 7.4 at 40° C., Day 4, no ion detected by the mass spectrometer): 5.8%; Area %, Day 1 (hydrolysis product peak) ([1]; pH 7.4 at 60° C., Day 1): 28.5%; Area %, Day 1 (parent peak) ([1]; pH 7.4 at 60° C., Day 1): 56.7%; Area %, Day 1 (unidentified peak, RRT 0.87) ([1]; pH 7.4 at 60° C., Day 1, no ion detected by the mass spectrometer): 6.6% |
| CN1C(=N)N[C@](C)(c2ccc(F)cc2F)[C@@H](c2ccc(C(F)(F)F)cc2)S1(=O)=O [Example 3] | no hydrolysis | no hydrolysis | no hydrolysis | 100.0% | 100.0% | 100.0% | 100.0% | 100.0% | 100.0% | 100.0% | 100.0% | 100.0% | 100.0% | 100.0% | Area %, Day 4 (parent peak) ([1]; pH 7.4 at 60° C., Day 4): 87.3%; Area %, Day 4 (unidentified peak, RRT 0.52) ([1]; pH 7.4 at 60° C., Day 4, no ion detected by the mass spectrometer): 12.7%; Ki [2]: ~9 nM; Ki [3]: ~11 nM |
